Experimental data: PubChem BioAssay AID1963971 (Molecular Pharmacology Branch, DTP, NCI, 2024)

Tested on: 953936-095-R-J2-PDC spheroids with HUVEC/MSC, viability
Experiment: Anticancer human tumor 953936-095-R-J2-PDC patient-derived cervical squamous cell carcinoma cell line growth inhibition [PI3K]
Details: for IC50: curve of first compound; for viability, T/C: stronger effect = lower value
Excerpt: Combinatorial screen of targeted agents with the PI3K inhibitors inavolisib, alpelisib, duvelisib, and copanlisib in multi-cell type tumor spheroids
A high-throughput screen of multi-cell type tumor spheroids was designed to identify active combinations of targeted small molecules and PI3K pathway inhibitors. Complex spheroids include a stromal component modeled by human endothelial cells (HUVEC) and fibroblasts modeled by human mesenchymal stem cells (MSCs). The concentration ranges selected for each drug and investigational agent were based upon clinically achievable concentrations if the clinical Cmax of the agent was known.
Compounds. The drugs and investigational agents: inavolisib (NSC800729), alpelisib (NSC765974), duvelisib (NSC772469), copanlisib (NSC816437), ipatasertib (NSC767898), afuresertib (NSC778305), talazoparib (NSC767125), sapanisertib (NSC764658), selumetinib (NSC741078), tovorafenib (DAY101, NSC766906), vemurafenib (NSC761431), ravoxertinib (NSC781343), sotorasib (NSC818433), MRTX1133 (NSC 836407), abemaciclib (NSC 768073), palbociclib (NSC758247), venetoclax (NSC 766270), SY5609 (NSC837396), enzalutamide (NSC755605), and darolutamide (NSC825331), were obtained from the National Cancer Institute (NCI) Developmental Therapeutics Program Chemical Repository. The FDA-approved anticancer drug set is available from the NCI Developmental Therapeutics Program. […] The stock solutions were prepared in dimethyl sulfoxide (DMSO, Sigma-Aldrich, St. Louis, MO, cat. D2650) at 800-fold the tested concentration and stored at -70 degrees C prior to their use. All drugs and investigational agents were tested over a range starting from a high concentration at or near the clinical Cmax and decreasing in half-log increments. If the clinical Cmax for an agent had not been determined, the highest concentration tested was 10 microM.
Cell Culture. All cells were maintained in an incubator at 37 degrees C and 5% CO2 with 95% humidity. The PDC lines were cultured according to standard operating procedures established by the NCI PDMR (https://pdmr.cancer.gov/sops/default.htm). All PDCs were thawed and cultured in Matrigel-coated flasks prepared with a working solution of 1X Ham's F-12 nutrient mix, without supplementation (Invitrogen, Waltham, MA, cat. 11765054), 100 U/mL penicillin-streptomycin (Invitrogen, cat. 15140122), and 2.5% Matrigel (Corning Inc., Corning, NY, cat. 354248) for the first three passages. The 354836-022-R-J1-PDC, 475296-252-R-J1-PDC, and 997726-040-R-J2-PDC lines were cultured in 6A media, which includes advanced DMEM/F-12 (Thermo Fisher Scientific, cat. 12634028), 10 mM HEPES (Thermo Fisher Scientific, cat. 15630080), 1X GlutaMAX supplement (Thermo Fisher Scientific, cat. 35050061), 0.1 mg/mL primocin (InvivoGen, San Diego, CA, cat. ant-pm-2), 10% defined fetal bovine serum, heat inactivated (HyClone Laboratories Inc., Logan, UT, cat. SH30070.03HI), 50% L-WRN conditioned media (ATCC, cat. CRL-3276), 1.25 mM N-Acetyl-L-cysteine (Sigma-Aldrich, cat. A9165), 10 mM nicotinamide (Sigma-Aldrich, cat. N0636), 1X B-27 supplement (Thermo Fisher Scientific, cat. 17504044), 1X N-2 supplement (Thermo Fisher Scientific, cat. 17502048), and 10 microM Y-27632 dihydrochloride (Tocris Bioscience, Bristol, United Kingdom, cat. 1254). The 624824-186-R-J2-PDC line was cultured in 6C/Colon 1B media, which includes all 6A media components plus 50 ng/mL human EGF recombinant protein (Thermo Fisher Scientific, cat. PHG0311). […]

[1] = second compound 0.0316 µM, first compound 0.0316 µM
[2] = second compound 0.0316 µM, first compound 0.1 µM
[3] = second compound 0.0316 µM, first compound 0.316 µM
[4] = second compound 0.0316 µM, first compound 1 µM
[5] = second compound 0.0316 µM, first compound 3.16 µM
[6] = second compound 0.0316 µM, first compound 10 µM
[7] = second compound 0.1 µM, first compound 0.0316 µM
[8] = second compound 0.1 µM, first compound 0.1 µM
[9] = second compound 0.1 µM, first compound 0.316 µM
[10] = second compound 0.1 µM, first compound 1 µM
[11] = second compound 0.1 µM, first compound 3.16 µM
[12] = second compound 0.1 µM, first compound 10 µM
[13] = second compound 0.316 µM, first compound 0.0316 µM
[14] = second compound 0.316 µM, first compound 0.1 µM
[15] = second compound 0.316 µM, first compound 0.316 µM
[16] = second compound 0.316 µM, first compound 1 µM
[17] = second compound 0.316 µM, first compound 3.16 µM
[18] = second compound 0.316 µM, first compound 10 µM
[19] = second compound 1 µM, first compound 0.0316 µM
[20] = second compound 1 µM, first compound 0.1 µM
[21] = second compound 1 µM, first compound 0.316 µM
[22] = second compound 1 µM, first compound 1 µM
[23] = second compound 1 µM, first compound 3.16 µM
[24] = second compound 1 µM, first compound 10 µM
[25] = second compound 3.16 µM, first compound 0.0316 µM
[26] = second compound 3.16 µM, first compound 0.1 µM
[27] = second compound 3.16 µM, first compound 0.316 µM
[28] = second compound 3.16 µM, first compound 1 µM
[29] = second compound 3.16 µM, first compound 3.16 µM
[30] = second compound 3.16 µM, first compound 10 µM
[31] = second compound 10 µM, first compound 0.0316 µM
[32] = second compound 10 µM, first compound 0.1 µM
[33] = second compound 10 µM, first compound 0.316 µM
[34] = second compound 10 µM, first compound 1 µM
[35] = second compound 10 µM, first compound 3.16 µM
[36] = second compound 10 µM, first compound 10 µM
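Note: spheroids exposed to compounds for seven days before read-out.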

SMILES: Cn1ncc(Cl)c1-c1cc(C(=O)NC(CN)Cc2cccc(F)c2)sc1Cl (stereo unspecified) + CC(Nc1ccc2c(c1)OCCn1cc(N3C(=O)OCC3C(F)F)nc1-2)C(N)=O
- IC50 (second compound 0.00316 µM): 618 nM
- IC50 (second compound 0.01 µM): 499 nM
- IC50 (second compound 0.0316 µM): 323 nM
- IC50 (second compound 0.1 µM): 181 nM
- IC50 (second compound 0.316 µM): < 31.6 nM
- IC50 (second compound 1 µM): < 31.6 nM
- viability, T/C (second compound 0.00316 µM, first compound 0.0316 µM): 83.3%
- viability, T/C (second compound 0.00316 µM, first compound 0.1 µM): 84.3%
- viability, T/C (second compound 0.00316 µM, first compound 0.316 µM): 62.6%
- viability, T/C (second compound 0.00316 µM, first compound 1 µM): 40.2%
- viability, T/C (second compound 0.00316 µM, first compound 3.16 µM): 19.1%
- viability, T/C (second compound 0.00316 µM, first compound 10 µM): 11%
- viability, T/C (second compound 0.01 µM, first compound 0.0316 µM): 90.4%
- viability, T/C (second compound 0.01 µM, first compound 0.1 µM): 87.3%
- viability, T/C (second compound 0.01 µM, first compound 0.316 µM): 58.1%
- viability, T/C (second compound 0.01 µM, first compound 1 µM): 35.1%
- viability, T/C (second compound 0.01 µM, first compound 3.16 µM): 17.7%
- viability, T/C (second compound 0.01 µM, first compound 10 µM): 12.6%
- viability, T/C [1]: 78.3%
- viability, T/C [2]: 71.3%
- viability, T/C [3]: 49.7%
- viability, T/C [4]: 27.6%
- viability, T/C [5]: 15.5%
- viability, T/C [6]: 9.96%
- viability, T/C [7]: 66.6%
- viability, T/C [8]: 61.7%
- viability, T/C [9]: 38.8%
- viability, T/C [10]: 25.7%
- viability, T/C [11]: 13.6%
- viability, T/C [12]: 10.5%
- viability, T/C [13]: 36.1%
- viability, T/C [14]: 37.1%
- viability, T/C [15]: 28%
- viability, T/C [16]: 17.1%
- viability, T/C [17]: 12.9%
- viability, T/C [18]: 7.57%
- viability, T/C [19]: 22.1%
- viability, T/C [20]: 22.5%
- viability, T/C [21]: 18.8%
- viability, T/C [22]: 13.8%
- viability, T/C [23]: 10.4%
- viability, T/C [24]: 5.59%

SMILES: C=CC(=O)N1CCN(c2nc(=O)n(-c3c(C)ccnc3C(C)C)c3nc(-c4c(O)cccc4F)c(F)cc23)C(C)C1 (stereo unspecified) + Cc1nc(NC(=O)N2CCCC2C(N)=O)sc1-c1ccnc(C(C)(C)C(F)(F)F)c1
- IC50 (second compound 0.0316 µM): > 10000 nM
- IC50 (second compound 0.1 µM): > 10000 nM
- IC50 (second compound 0.316 µM): > 10000 nM
- IC50 (second compound 1 µM): < 31.6 nM
- IC50 (second compound 3.16 µM): < 31.6 nM
- IC50 (second compound 10 µM): < 31.6 nM
- viability, T/C [1]: 85.5%
- viability, T/C [2]: 89.2%
- viability, T/C [3]: 95.8%
- viability, T/C [4]: 109%
- viability, T/C [5]: 110%
- viability, T/C [6]: 105%
- viability, T/C [7]: 81.9%
- viability, T/C [8]: 83.7%
- viability, T/C [9]: 90.2%
- viability, T/C [10]: 98.6%
- viability, T/C [11]: 123%
- viability, T/C [12]: 117%
- viability, T/C [13]: 64.5%
- viability, T/C [14]: 65.7%
- viability, T/C [15]: 68.8%
- viability, T/C [16]: 86%
- viability, T/C [17]: 84.4%
- viability, T/C [18]: 73.7%
- viability, T/C [19]: 46%
- viability, T/C [20]: 52.1%
- viability, T/C [21]: 47.7%
- viability, T/C [22]: 51.5%
- viability, T/C [23]: 55.9%
- viability, T/C [24]: 48%
- viability, T/C [25]: 27%
- viability, T/C [26]: 27.8%
- viability, T/C [27]: 27%
- viability, T/C [28]: 32.8%
- viability, T/C [29]: 33.4%
- viability, T/C [30]: 26.1%
- viability, T/C [31]: 11.5%
- viability, T/C [32]: 11.8%
- viability, T/C [33]: 11.9%
- viability, T/C [34]: 11.9%
- viability, T/C [35]: 10.8%
- viability, T/C [36]: 7.49%

SMILES: CC(C)NCC(C(=O)N1CCN(c2ncnc3c2C(C)CC3O)CC1)c1ccc(Cl)cc1 (stereo unspecified) + CC(Nc1ncnc2nc[nH]c12)c1cc2cccc(Cl)c2c(=O)n1-c1ccccc1
- IC50 (second compound 0.0316 µM): 952 nM
- IC50 (second compound 0.1 µM): 1010 nM
- IC50 (second compound 0.316 µM): 922 nM
- IC50 (second compound 1 µM): 1050 nM
- IC50 (second compound 3.16 µM): 873 nM
- IC50 (second compound 10 µM): 393 nM
- viability, T/C [1]: 94.7%
- viability, T/C [2]: 99.8%
- viability, T/C [3]: 77.9%
- viability, T/C [4]: 49.6%
- viability, T/C [5]: 22.6%
- viability, T/C [6]: 14.1%
- viability, T/C [7]: 100%
- viability, T/C [8]: 104%
- viability, T/C [9]: 75.8%
- viability, T/C [10]: 52.5%
- viability, T/C [11]: 24.3%
- viability, T/C [12]: 14.3%
- viability, T/C [13]: 111%
- viability, T/C [14]: 98.1%
- viability, T/C [15]: 82%
- viability, T/C [16]: 47.9%
- viability, T/C [17]: 23.1%
- viability, T/C [18]: 17.1%
- viability, T/C [19]: 104%
- viability, T/C [20]: 82.9%
- viability, T/C [21]: 73.5%
- viability, T/C [22]: 53.9%
- viability, T/C [23]: 26.2%
- viability, T/C [24]: 13.4%
- viability, T/C [25]: 79.7%
- viability, T/C [26]: 79.1%
- viability, T/C [27]: 72.9%
- viability, T/C [28]: 45.7%
- viability, T/C [29]: 23.6%
- viability, T/C [30]: 12.7%
- viability, T/C [31]: 61.1%
- viability, T/C [32]: 58.3%
- viability, T/C [33]: 51.7%
- viability, T/C [34]: 40%
- viability, T/C [35]: 20.1%
- viability, T/C [36]: 9.46%
